# Target: human PAD4 (hPAD4) (Homo sapiens (Human), UniProt Q9UM07)
# Experiment: RFMS Human PAD4 Functional Assay 1
# Assay type: biochemical
# Settings: RFMS assay 1; 5 nM hPAD4, 250 μM BAEE substrate, 50 μM calcium, 37° C.
# Summary of the method: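 Citrullination product read by RapidFire triple-quad MRM against a modified-citrulline internal standard, after TCA stop and 30 min phenyl glyoxal step at 37 °C. Reaction: 250 μM BAEE, 5 nM human PAD4, 90 min at 37 °C, pH 7.5 HEPES buffer with 50 μM calcium and 5 μM TPEN, following 30 min compound–enzyme preincubation (max 50 μM).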
# human PAD4 (hPAD4), sequence (Q9UM07 whole entry): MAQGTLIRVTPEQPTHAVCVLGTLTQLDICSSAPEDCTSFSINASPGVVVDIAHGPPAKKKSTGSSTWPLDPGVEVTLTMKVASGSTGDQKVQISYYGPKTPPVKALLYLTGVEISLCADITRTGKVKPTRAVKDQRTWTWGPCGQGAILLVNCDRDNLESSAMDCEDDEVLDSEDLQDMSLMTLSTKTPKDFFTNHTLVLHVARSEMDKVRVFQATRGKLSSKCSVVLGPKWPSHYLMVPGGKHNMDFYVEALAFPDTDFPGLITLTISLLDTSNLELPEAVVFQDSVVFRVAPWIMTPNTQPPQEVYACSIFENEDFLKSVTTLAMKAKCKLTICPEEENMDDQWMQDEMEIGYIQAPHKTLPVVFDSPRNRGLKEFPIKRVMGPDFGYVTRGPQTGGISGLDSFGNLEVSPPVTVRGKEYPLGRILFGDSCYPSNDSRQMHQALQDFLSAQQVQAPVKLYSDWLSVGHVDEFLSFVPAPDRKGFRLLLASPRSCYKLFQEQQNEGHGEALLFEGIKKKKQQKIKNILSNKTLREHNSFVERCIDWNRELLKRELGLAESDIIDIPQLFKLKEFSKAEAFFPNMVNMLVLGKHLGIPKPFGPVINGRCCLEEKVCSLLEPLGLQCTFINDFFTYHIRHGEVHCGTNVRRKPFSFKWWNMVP
row,SMILES,IC50 [nM]
1,"COc1cc(C(=O)N2CC3CCC2[C@@H]3N)cc2oc(-c3cc4ccc(-c5ccn6c(C)nnc6c5)cc4n3CC3CC3)c(C)c12 (stereo partly drawn) [Example 157, ((7R)-7-Amino-2-azabicyclo[2.2.1]heptan-2-yl)(2-(1-(cyclopropylmethyl)-6-(3-methyl-[1,2,4]triazolo[4,3-a]pyridin-7-yl)-1H-indol-2-yl)-4-methoxy-3-methylbenzofuran-6-yl)methanone]",95
2,"COc1cc(C(=O)N2CC3CCC2[C@@H]3N)cc2oc(-c3cc4ccc(N5CCC(OC)CC5)cc4n3CC3CC3)c(C)c12 (stereo partly drawn) [Example 159, ((7R)-7-Amino-2-azabicyclo[2.2.1]heptan-2-yl)(2-(1-(cyclopropylmethyl)-6-(4-methoxypiperidin-1-yl)-1H-indol-2-yl)-4-methoxy-3-methylbenzofuran-6-yl)methanone]",1210
3,"COc1cc(C(=O)N2C[C@H](N)C[C@@H](F)C2)cc2oc(-c3cc4ccccc4n3CC3CC3)c(C)c12 [Example 161, ((3R,5R)-3-Amino-5-fluoropiperidin-1-yl)(2-(1-(cyclopropylmethyl)-1H-indol-2-yl)-4-methoxy-3-methylbenzofuran-6-yl)methanone]",487
4,"COc1cc(C(=O)N2C[C@H](N)C[C@@H](F)C2)cc2oc(-c3cc4ccc(-c5ccc(C(N)=O)c(Cl)c5)cc4n3CC3CC3)c(C)c12 [Example 162, 4-(2-(6-((3R,5R)-3-Amino-5-fluoropiperidine-1-carbonyl)-4-methoxy-3-methylbenzofuran-2-yl)-1-(cyclopropylmethyl)-1H-indol-6-yl)-2-chlorobenzamide]",2290
5,"COc1cc(C(=O)N2C[C@H](N)C[C@@H](F)C2)cc2oc(-c3cc4ccc(-c5cccc(O)c5F)cc4n3CC3CC3)c(C)c12 [Example 163, ((3R,5R)-3-Amino-5-fluoropiperidin-1-yl)(2-(1-(cyclopropylmethyl)-6-(2-fluoro-3-hydroxyphenyl)-1H-indol-2-yl)-4-methoxy-3-methylbenzofuran-6-yl)methanone]",5590

# Continued, values first:
row,IC50 [nM],SMILES
1,1010,"COc1cc(C(=O)N2CC3CCC2[C@@H]3N)cc2oc(-c3cc4ccc(-c5ccc(O)c(F)c5)cc4n3CC3CC3)c(C)c12 (stereo partly drawn) [Example 154, ((7R)-7-Amino-2-azabicyclo[2.2.1]heptan-2-yl)(2-(1-(cyclopropylmethyl)-6-(3-fluoro-4-hydroxyphenyl)-1H-indol-2-yl)-4-methoxy-3-methylbenzofuran-6-yl)methanone]"
2,173,"COc1cc(C(=O)N2CC3CCC2[C@@H]3N)cc2oc(-c3cc4ccc(C5CC5)cc4n3CC3CC3)c(C)c12 (stereo partly drawn) [Example 156, ((7R)-7-Amino-2-azabicyclo[2.2.1]heptan-2-yl)(2-(6-cyclopropyl-1-(cyclopropylmethyl)-1H-indol-2-yl)-4-methoxy-3-methylbenzofuran-6-yl)methanone]"
3,48,"COc1cc(C(=O)N2CC3CCC2[C@@H]3N)cc2oc(-c3cc4ccc(N5CCC(N)CC5)cc4n3CC3CC3)c(C)c12 (stereo partly drawn) [Example 160, ((7R)-7-Amino-2-azabicyclo[2.2.1]heptan-2-yl)(2-(6-(4-aminopiperidin-1-yl)-1-(cyclopropylmethyl)-1H-indol-2-yl)-4-methoxy-3-methylbenzofuran-6-yl)methanone]"
4,625,"Cc1c(-c2cc3cccnc3n2CC2CC2)oc2cc(C(=O)N3CC4CCC3[C@@H]4N)ccc12 (stereo partly drawn) [Example 164, ((7R)-7-Amino-2-azabicyclo[2.2.1]heptan-2-yl)(2-(1-(cyclopropylmethyl)-1H-pyrrolo[2,3-b]pyridin-2-yl)-3-methylbenzofuran-6-yl)methanone]"
5,198,"Cc1c(-c2cc3ccc(Cl)nc3n2CC2CC2)oc2cc(C(=O)N3CC4CCC3[C@@H]4N)ccc12 (stereo partly drawn) [Example 165, ((7R)-7-Amino-2-azabicyclo[2.2.1]heptan-2-yl)(2-(6-chloro-1-(cyclopropylmethyl)-1H-pyrrolo[2,3-b]pyridin-2-yl)-3-methylbenzofuran-6-yl)methanone]"

# From US12473304B2, “Heterocyclic PAD4 inhibitors” (BRISTOL-MYERS SQUIBB COMPANY, priority 2020, dated 2025)
